This is an account of results in patent US8399465B2, “Compounds with two fused bicyclic heteroaryl moieties as modulators of leukotriene A4 hydrolase” (Janssen Pharmaceutica NV, priority 2009, dated 2013).

Counter-ions that a name gives are not always drawn.

Assay [1] concerns the target T1, recombinant human LTA4 hydrolase (rhLTA4H) (Homo sapiens, UniProt P09960).
T1 construct: made in house; host or cells: Spodoptera frugiperda (Sf-9) cells, baculovirus (pFastBac1)
T1 sequence (P09960 1-611): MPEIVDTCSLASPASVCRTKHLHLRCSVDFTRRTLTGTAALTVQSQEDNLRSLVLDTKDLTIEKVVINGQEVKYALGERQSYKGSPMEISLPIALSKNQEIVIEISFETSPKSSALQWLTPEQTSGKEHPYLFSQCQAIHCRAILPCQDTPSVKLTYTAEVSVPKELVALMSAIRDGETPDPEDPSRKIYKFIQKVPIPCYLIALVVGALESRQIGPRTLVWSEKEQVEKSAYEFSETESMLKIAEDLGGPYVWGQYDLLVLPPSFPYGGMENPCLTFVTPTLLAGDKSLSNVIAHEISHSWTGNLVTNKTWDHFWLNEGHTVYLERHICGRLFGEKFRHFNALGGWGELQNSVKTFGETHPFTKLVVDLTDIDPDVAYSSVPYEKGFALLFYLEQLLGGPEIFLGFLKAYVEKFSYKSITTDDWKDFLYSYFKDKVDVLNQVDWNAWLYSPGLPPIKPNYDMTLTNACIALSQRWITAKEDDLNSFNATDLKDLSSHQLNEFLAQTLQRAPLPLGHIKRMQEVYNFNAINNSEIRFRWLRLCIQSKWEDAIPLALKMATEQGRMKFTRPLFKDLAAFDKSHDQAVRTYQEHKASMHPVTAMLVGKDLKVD
As to the kind of experiment: Recombinant human LTA4 hydrolase assay for LTA4 hydrolase inhibitor activity. Type of assay: biochemical. The settings on record: rhLTA4H, LTB4 by immunoassay; single determination or average of two or more; mark after value = form tested: ′ free base, ″ hydrochloride, ^ formate; read-out: IC50. In a few lines:
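Baculovirus/Sf-9-expressed human LTA4H (10 ng) was preincubated 10 min at rt with compound in assay buffer (10% DMSO in compound dilution), then reacted 30 min at rt with LTA4 free acid made from its methyl ester. LTB4 produced was measured by ELISA after dilution; IC50 from non-linear regression, single or averaged determinations.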

In assay [2] the test system is LTB4 production in murine blood (LTA4H). Description: LTB4 production by calcium ionophore-stimulated murine blood for LTA4H inhibitor activity. Type of assay: cell-based, CD-1 mice. Particulars: Mus musculus; murine blood diluted 1 in 15, A23187 stimulated; single determination or average; mark after value = form tested: ′ free base, ″ hydrochloride, ^ formate; read-out: IC50. Here is the method:
Assay 2: LTB4 Production by Calcium Ionophore-Stimulated Murine Blood for LTA4H Inhibitor Activity
CD-1 mice were sacrificed, and blood was collected in heparin-containing syringes by cardiac puncture. […] After the microtiter plate contents were incubated for 15 min at 37° C. in a humidified incubator, calcium ionophore A23187 (Sigma Chemical Co., St. Louis, Mo.) was added to each sample well (final concentration=7 μg/mL). The incubation was continued under the same conditions for an additional 30 min to allow LTB4 formation. The reaction was terminated by centrifugation (833×g, 10 min at 4° C.), and supernatants were analyzed for LTB4 by a commercially available enzyme-linked immunoassay (Cayman Chemical Co.) according to the manufacturer's instructions. Positive controls, under essentially identical conditions but without addition of an inhibitor compound, and negative unstimulated controls, containing all assay components except calcium ionophore, were routinely run in each experiment. […] The values presented here are the result of a single determination or an average of two or more determinations.

For orientation: IC50 means the concentration that gives 50% inhibition. In the case of `CCN(CC)Cc1coc2cc(Oc3nc4ncccc4s3)ccc12` [Example 219, Diethyl-[6-(thiazolo[4,5-b]pyridin-2-yloxy)-benzofuran-3-ylmethyl]-amine], the IC50 in assay [1] was 2 nM; in assay [2], 20 nM.
For `c1csc(CNCc2coc3cc(Oc4nc5ncccc5s4)ccc23)c1` [Example 300, [6-(Thiazolo[4,5-b]pyridin-2-yloxy)-benzofuran-3-ylmethyl]-thiophen-2-ylmethyl-amine], in that order: 20 nM and 150 nM.
For `CC(C)(C)OC(=O)N1CC2CN(Cc3c[nH]c4cc(Oc5nc6ccccc6s5)ccc34)CC2C1` (stereo not shown) [Example 146, 5-[6-(Benzothiazol-2-yloxy)-1H-indol-3-ylmethyl]-hexahydro-pyrrolo[3,4-c]pyrrole-2-carboxylic acid tert-butyl ester], in that order: 17 nM and 582 nM.
For `c1cnc2nc(Oc3ccc4cc(CN5CCCCC5)[nH]c4c3)sc2c1` [Example 71, 2-(2-Piperidin-1-ylmethyl-1H-indol-6-yloxy)-thiazolo[4,5-b]pyridine], in that order: 17 nM and 87 nM.
On to `CC(=O)N1CCN(Cc2cc3cc(Oc4nc5ncccc5s4)ccc3o2)CC1` [Example 259, 1-{4-[5-(Thiazolo[4,5-b]pyridin-2-yloxy)-benzofuran-2-ylmethyl]-piperazin-1-yl}ethanone formate], for which the results for the IC50 in assay [1] and in assay [2] were 5 nM and 74 nM, respectively.
On the same counts, the results for `CC(=O)NC1CCN(Cc2coc3cc(Oc4nc5ncc(C)cc5s4)ccc23)CC1` [Example 251, N-{1-[6-(6-Methyl-thiazolo[4,5-b]pyridin-2-yloxy)-benzofuran-3-ylmethyl]-piperidin-4-yl}-acetamide formate] are 27 nM and 220 nM.
For `O=C(c1coc2cc(Oc3nc4ncccc4s3)ccc12)N1CCC(c2ccccc2)CC1` [Example 377, (4-Phenyl-piperidin-1-yl)-[6-(thiazolo[4,5-b]pyridin-2-yloxy)-benzofuran-3-yl]-methanone], in that order: 20 nM and 410 nM.
On to `NC(=O)N[C@H]1C[C@H]2CC[C@@H](C1)N2Cc1coc2cc(Oc3nc4ncccc4s3)ccc12` [Example 175, meso-endo-{8-[6-(Thiazolo[4,5-b]pyridin-2-yloxy)-benzofuran-3-ylmethyl]-8-aza-bicyclo[3.2.1]oct-3-yl}-urea], for which the IC50 turned out to be 2 nM in assay [1] and 176 nM in assay [2].
As to `CNC(=O)C1CCN(Cc2c[nH]c3cc(Oc4nc5ccccc5s4)ccc23)CC1` [Example 22, 1-[6-(Benzothiazol-2-yloxy)-1H-indol-3-ylmethyl]-piperidine-4-carboxylic acid methylamide], the results for the IC50 in assay [1] and in assay [2] were 2 nM and 79 nM, respectively.
For `CC(=O)N[C@H]1C[C@H]2CC[C@@H](C1)N2Cc1c[nH]c2cc(Oc3nc4cccnc4s3)ccc12` [Example 43, meso-endo-N-{8-[6-(Thiazolo[5,4-b]pyridin-2-yloxy)-1H-indol-3-ylmethyl]-8-aza-bicyclo[3.2.1]oct-3-yl}-acetamide], the half-maximal inhibitory concentration (IC50) in assay [1] turned out to be 6 nM; in assay [2], 409 nM.
On the same counts, the results for `c1ccc(CCN2CCN(Cc3coc4cc(Oc5nc6ncccc6s5)ccc34)CC2)cc1` [Example 291, 2-[3-(4-Phenethyl-piperazin-1-ylmethyl)-benzofuran-6-yloxy]-thiazolo[4,5-b]pyridine formate] are 14 nM and 130 nM.
As for `OC1(c2ccccc2)CCN(Cc2coc3cc(Oc4nc5ncccc5s4)ccc23)CC1` [Example 275, 4-Phenyl-1-[6-(thiazolo[4,5-b]pyridin-2-yloxy)-benzofuran-3-ylmethyl]-piperidin-4-ol], the IC50 was 2 nM in assay [1] and 34 nM in assay [2].
For `CC(=O)N1C[C@@H]2C[C@H]1CN2Cc1c[nH]c2cc(Oc3nc4ncccc4s3)ccc12` [Example 19, (1S,4S)-1-{5-[6-(Thiazolo[4,5-b]pyridin-2-yloxy)-1H-indol-3-ylmethyl]-2,5-diaza-bicyclo[2.2.1]hept-2-yl}-ethanone], in that order: 2 nM and 104 nM.
For `NC(=O)N1CC2CN(Cc3cc4cc(Oc5nc6ncccc6s5)ccc4o3)CC2C1` (stereo not shown) [Example 91, 5-[5-(Thiazolo[4,5-b]pyridin-2-yloxy)-benzofuran-2-ylmethyl]-hexahydro-pyrrolo[3,4-c]pyrrole-2-carboxylic acid amide], in that order: 88 nM and 97 nM.
For `c1ccc2sc(Oc3ccc4cc(CN5CCCC5)[nH]c4c3)nc2c1` [Example 68, 2-(2-Pyrrolidin-1-ylmethyl-1H-indol-6-yloxy)-benzothiazole], the IC50 worked out at 20 nM in assay [1] and 450 nM in assay [2].
For `c1cnc(OC2CCN(Cc3coc4cc(Oc5nc6ncccc6s5)ccc34)CC2)nc1` [Example 217, 2-{3-[4-(Pyrimidin-2-yloxy)-piperidin-1-ylmethyl]-benzofuran-6-yloxy}-thiazolo[4,5-b]pyridine], in that order: 4 nM and 36 nM.
As for `CN(Cc1ccccc1)Cc1cc2cc(Oc3nc4ncccc4s3)ccc2o1` [Example 114, Benzyl-methyl-[5-(thiazolo[4,5-b]pyridin-2-yloxy)-benzofuran-2-ylmethyl]-amine], the results for the IC50 in assay [1] and in assay [2] were 15 nM and 85 nM, respectively.
On the same counts, the results for `O=C1CCc2ccccc2N1Cc1coc2cc(Oc3nc4ncccc4s3)ccc12` [Example 397, 1-[6-(Thiazolo[4,5-b]pyridin-2-yloxy)-benzofuran-3-ylmethyl]-3,4-dihydro-1H-quinolin-2-one] are 16 nM and 820 nM.
On the same counts, the results for `c1ccc2sc(Oc3cnc4c(CN5CCOCC5)c[nH]c4c3)nc2c1` [Example 32, 2-(3-Morpholin-4-ylmethyl-1H-pyrrolo[3,2-b]pyridin-6-yloxy)-benzothiazole] are 96 nM and 258 nM.
On the same counts, the results for `c1ccc(N2CCN(Cc3coc4cc(Oc5nc6ncccc6s5)ccc34)CC2)cc1` [Example 287, 2-[3-(4-Phenyl-piperazin-1-ylmethyl)-benzofuran-6-yloxy]-thiazolo[4,5-b]pyridine formate] are 26 nM and 240 nM.
`CC(=O)N1CCN(CC(=O)NCc2coc3cc(Oc4nc5ncccc5s4)ccc23)CC1` [Example 390, 2-(4-Acetyl-piperazin-1-yl)-N-[6-(thiazolo[4,5-b]pyridin-2-yloxy)-benzofuran-3-ylmethyl]-acetamide]: the results for the concentration for half-maximal inhibition (IC50) in assay [1] and in assay [2] were 27 nM and 270 nM, respectively.
For `O=C(NCc1coc2cc(Oc3nc4ncccc4s3)ccc12)C1CCC(O)CC1` (stereo not shown) [Example 392, 4-Hydroxy-cyclohexanecarboxylic acid [6-(thiazolo[4,5-b]pyridin-2-yloxy)-benzofuran-3-ylmethyl]-amide], the IC50 in assay [1] came out at 29 nM; in assay [2], 290 nM.
Turning to `CN(CCC(=O)O)Cc1coc2cc(Oc3nc4ncccc4s3)ccc12` [Example 335, 3-{Methyl-[6-(thiazolo[4,5-b]pyridin-2-yloxy)-benzofuran-3-ylmethyl]-amino}-propionic acid formate], the results for the IC50 in assay [1] and in assay [2] were 5 nM and 200 nM, respectively.
